{"source": "patent US6437093B1", "about": "“Methods of treatment comprising administration of Substance P” (Milkhaus Laboratory, Inc., priority 2000, dated 2002)", "assay_type_in_all_cases": "in vivo, human", "key": {"[1]": {"tested_on": "upper airway distress, persistent cough, RUDS (Reactive Upper Airway Dysfunction)", "test": "Case report: persistent cough from RUDS triggered by volatile chemicals, sublingual Substance P", "conditions": "person with RUDS; sublingual drop 8×10−^5 mg, one drop per hour for three hours then four times daily", "experimental": "His disease appeared to be initiated by chronic exposure to floor stripper which caused RUDS (Reactive Upper Airway Dysfunction). […] Each drop contained 8×10−^5 mg synthetic Substance P (Sigma) in phosphate buffered saline."}, "[2]": {"tested_on": "repetitive, almost tic-like, exaggerated cough", "test": "Case report: repetitive tic-like exaggerated cough, sublingual Substance P", "conditions": "child", "experimental": "Their disease appeared to be initiated by chronic exposure to floor stripper which caused RUDS (Reactive Upper Airway Dysfunction). […] Each drop contained 8×10−^5 mg synthetic Substance P (Sigma) in phosphate buffered saline. According to this example, a child presented with a repetitive, almost tic-like, exaggerated cough that was disruptive to their classmates and teacher. Several physicians were consulted without success and with no apparent cause found for the cough."}, "[3]": {"tested_on": "RUDS manifested as severe hoarseness or aphonia", "test": "Case report: RUDS with severe hoarseness or aphonia, sublingual Substance P", "conditions": "person, one drop four times daily or more if needed", "experimental": "Their disease appeared to be initiated by chronic exposure to floor stripper which caused RUDS (Reactive Upper Airway Dysfunction). […] Each drop contained 8×10−^5 mg synthetic Substance P (Sigma) in phosphate buffered saline. According to this example, a person presented RUDS that manifested as severe hoarseness or even aphonia if exposed to volatile chemicals, and especially to fragrances. They had suffered for several years after being exposed to fragrances from several co-workers using multiple perfumes. Their airway problem was reduced only by complete avoidance of any exposure to volatile chemicals which dramatically changing their lifestyle. […] Their RUDS continues to be controlled by taking one drop of Substance P four times daily, or more frequently if needed."}, "[4]": {"tested_on": "numbness, tingling and severe pain in feet and legs", "test": "Case report: numbness, tingling and severe pain in feet, legs and hands, sublingual Substance P", "conditions": "person; sublingual administration as in Example 1", "experimental": "Their disease appeared to be initiated by chronic exposure to floor stripper which caused RUDS (Reactive Upper Airway Dysfunction). […] Each drop contained 8×10−^5 mg synthetic Substance P (Sigma) in phosphate buffered saline. According to this example, a person presented with a history of numbness, tingling and severe pain in feet and legs eight years earlier. During the year immediately preceding their first office visit, the discomfort had spread to their hands. […] No cause of their discomfort could be determined, and the only relief they obtained was from narcotic analgesics."}, "[5]": {"tested_on": "severe sciatic-like pain of the hip", "test": "Case report: severe sciatic-like hip pain in a diabetic subject, sublingual Substance P", "conditions": "person with diabetes; sublingual administration as in Example 1", "experimental": "Their disease appeared to be initiated by chronic exposure to floor stripper which caused RUDS (Reactive Upper Airway Dysfunction). […] Each drop contained 8×10−^5 mg synthetic Substance P (Sigma) in phosphate buffered saline. According to this example, a person presented with severe sciatic-like pain of the hip of long duration. The subject also presented with a diagnosis of diabetes. […] They continue well for over two years."}, "chronic sciatic pain": {"tested_on": "chronic sciatic pain", "test": "Case report: chronic disabling sciatic pain, sublingual Substance P", "conditions": "person", "experimental": "Their disease appeared to be initiated by chronic exposure to floor stripper which caused RUDS (Reactive Upper Airway Dysfunction). […] Each drop contained 8×10−^5 mg synthetic Substance P (Sigma) in phosphate buffered saline. According to this example, a person presented with a diagnosis of chronic sciatic pain that was disabling and of several years duration. Analgesics helped reduce the pain. The subject was treated by sublingual administration of Substance P according to the method of Example 1."}, "[6]": {"tested_on": "arthritis-like pain and inflammation of the knuckles", "test": "Case report: arthritis-like pain and inflammation of the knuckles, sublingual Substance P", "conditions": "person; after three days of sublingual drop therapy, continued after two months", "experimental": "Their disease appeared to be initiated by chronic exposure to floor stripper which caused RUDS (Reactive Upper Airway Dysfunction). […] Each drop contained 8×10−^5 mg synthetic Substance P (Sigma) in phosphate buffered saline. According to this example, a person with arthritis-like pain and inflammation of the knuckles but who tested negative for rheumatoid factor. […] The subject was treated by sublingual administration of Substance P according to the method. of Example 1."}}, "note": "Ends that are not written are not given here."}
{"substance": "Substance P (RPKPQQFFGLM; not fully specified (C-terminus); UniProt P20366 58-68, looked up) [synthetic Substance P (Sigma) in phosphate buffered saline; a tachykinin naturally occurring in the body]", "values": [{"measurement": "effect on persistent cough", "setting": "[1]", "value": "stopped almost immediately"}, {"measurement": "long-term control of cough disorder", "setting": "[2]; continued sublingual treatment", "value": "continued to control this disorder after more than a year"}, {"measurement": "effect on cough", "setting": "[2]; sublingual administration as in Example 1", "value": "stopped the cough within minutes"}, {"measurement": "effect on RUDS (hoarseness/aphonia)", "setting": "[3]", "value": "significant improvement"}, {"measurement": "need for narcotic analgesics", "setting": "[4]", "value": "able to discontinue narcotics"}, {"measurement": "pain relief", "setting": "[4]", "value": "almost immediate pain relief"}, {"measurement": "effect on sciatic-like hip pain", "setting": "[5]", "value": "reduced the pain dramatically"}, {"measurement": "long-term control of sciatic pain", "setting": "chronic sciatic pain; daily doses over several months", "value": "continued control of pain"}, {"measurement": "effect on chronic sciatic pain after first drop", "setting": "chronic sciatic pain; first sublingual drop", "value": "instantly and dramatically “turned off” the pain"}, {"measurement": "effect on arthritis-like pain and inflammation", "setting": "[6]", "value": "“remarkable” improvement"}]}
